Measured values: patent US11331299B2, “Medicinal use of serrulatane diterpenes” (The University of Sydney, priority 2016, dated 2022)
Like-named read-outs stand apart in the source and are kept apart here.

Test system: 280 human cancer cell lines
Test: OncoPanel cell proliferation assay (10-day)
Type: cell-based
Details: Homo sapiens; for EC50: read-out: Cell Count EC50; for GI50: read-out: Cell Count GI50; for IC50: read-out: Cell Count IC50
[1] = NCI-H292, NCI-H292, Lung - NSCLC
[2] = NCI-H295R, Endocrine - Adrenal gland
[3] = NCI-H441, NCIH441, Lung - NSCLC
[4] = NCI-H460, NCI-H460, Lung - NSCLC
[5] = NCI-H520, NCI-H520, Lung - NSCLC
[6] = NCI-H596, NCI-H596, Lung - NSCLC
[7] = NCI-H661, NCI-H661, Lung - NSCLC
[8] = NTERA-2-cl-D1, NTERA-2 cl.D1, Testis
[9] = OVCAR-3, OVCAR3, Female GU - Ovary
[10] = RPMI-7951, RPMI-7951, Skin (Melanoma)
[11] = SAOS-2, SaOS2, Soft Tissue - Osteosarcoma

CC(C)=CCC[C@@H]1C(O)Oc2c(C)cc(O)c3c2[C@H]1CC[C@H]3C (some centres unmarked) [Compound 2, 5,18-epoxyserrulat-14-en-8,18-diol]
EC50 [1]: 16.7 µM | GI50 [1]: 16.6 µM | IC50 [1]: 16.7 µM | EC50 [2]: > 30 µM | GI50 [2]: > 30 µM | IC50 [2]: > 30 µM | EC50 [3]: > 30 µM | GI50 [3]: > 30 µM | IC50 [3]: > 30 µM | EC50 (NCI-H446, NCIH446, Lung - SCLC): 9.75 µM | GI50 (NCI-H446, NCIH446, Lung - SCLC): 9.77 µM | IC50 (NCI-H446, NCIH446, Lung - SCLC): 9.85 µM | EC50 [4]: 5.57 µM | GI50 [4]: 5.91 µM | IC50 [4]: 5.92 µM | EC50 (NCI-H508, NCI-H508, Colon): > 30 µM | GI50 (NCI-H508, NCI-H508, Colon): > 30 µM | IC50 (NCI-H508, NCI-H508, Colon): > 30 µM | EC50 [5]: 9.03 µM | GI50 [5]: 9.17 µM | IC50 [5]: 9.2 µM | EC50 [6]: 12 µM | GI50 [6]: 14.4 µM | IC50 [6]: 15.1 µM | EC50 [7]: 9.51 µM | GI50 [7]: 9.51 µM | IC50 [7]: 9.51 µM | EC50 (NCI-H747, NCI-H747, Colon): 12.3 µM | GI50 (NCI-H747, NCI-H747, Colon): > 30 µM | IC50 (NCI-H747, NCI-H747, Colon): > 30 µM | EC50 [8]: 12.5 µM | GI50 [8]: 12.3 µM | IC50 [8]: 12.5 µM | EC50 (OCUG-1, OCUG-1, Liver): > 30 µM | GI50 (OCUG-1, OCUG-1, Liver): 29.9 µM | IC50 (OCUG-1, OCUG-1, Liver): > 30 µM | EC50 (OE19, OE19, Head and Neck): > 30 µM | GI50 (OE19, OE19, Head and Neck): > 30 µM | IC50 (OE19, OE19, Head and Neck): > 30 µM | EC50 (OE21, OE21, Head and Neck): > 30 µM | GI50 (OE21, OE21, Head and Neck): > 30 µM | IC50 (OE21, OE21, Head and Neck): > 30 µM | EC50 [9]: 14.4 µM | GI50 [9]: 13.7 µM | IC50 [9]: 14.4 µM | EC50 (PA-1, Female GU - Ovary): 11.6 µM | GI50 (PA-1, Female GU - Ovary): 16.2 µM | IC50 (PA-1, Female GU - Ovary): 16.3 µM | EC50 (PANC-1, PANC-1, Pancreas): 7.06 µM | GI50 (PANC-1, PANC-1, Pancreas): 7.01 µM | IC50 (PANC-1, PANC-1, Pancreas): 7.06 µM | EC50 (PC-3, Prostate): 12 µM | GI50 (PC-3, Prostate): 11.8 µM | IC50 (PC-3, Prostate): 12 µM | EC50 (PFSK-1, PFSK-1, CNS - Glioma): 14.7 µM | GI50 (PFSK-1, PFSK-1, CNS - Glioma): 14.6 µM | IC50 (PFSK-1, PFSK-1, CNS - Glioma): 14.7 µM | EC50 (PSN1, PSN-1, Pancreas): 12 µM | GI50 (PSN1, PSN-1, Pancreas): 12 µM | IC50 (PSN1, PSN-1, Pancreas): 12 µM | EC50 (RD, Soft Tissue - Sarcoma): 2.98 µM | GI50 (RD, Soft Tissue - Sarcoma): 2.96 µM | IC50 (RD, Soft Tissue - Sarcoma): 2.98 µM | EC50 (RKO, Colon): 7.22 µM | GI50 (RKO, Colon): 7.92 µM | IC50 (RKO, Colon): 7.92 µM | EC50 (RKOE6, RKOE6, Colon): 6.95 µM | GI50 (RKOE6, RKOE6, Colon): 6.93 µM | IC50 (RKOE6, RKOE6, Colon): 6.95 µM | EC50 (RPMI-6666, RPMI 6666, Lymphoma): 10.4 µM | GI50 (RPMI-6666, RPMI 6666, Lymphoma): 10.7 µM | IC50 (RPMI-6666, RPMI 6666, Lymphoma): 10.7 µM | EC50 [10]: 5.77 µM | GI50 [10]: 6.13 µM | IC50 [10]: 6.15 µM | EC50 (RPMI-8226, RPMI 8226, Myeloma): 2.02 µM | GI50 (RPMI-8226, RPMI 8226, Myeloma): 1.95 µM | IC50 (RPMI-8226, RPMI 8226, Myeloma): 2.02 µM | EC50 (RS4-11, RS4, 11, Leukemia): 6.43 µM | GI50 (RS4-11, RS4, 11, Leukemia): 6.3 µM | IC50 (RS4-11, RS4, 11, Leukemia): 6.43 µM | EC50 (Raji, Lymphoma): 8.04 µM | GI50 (Raji, Lymphoma): 8.04 µM | IC50 (Raji, Lymphoma): 8.04 µM | EC50 (Ramos, Ramos (RA 1), Lymphoma): 4.39 µM | GI50 (Ramos, Ramos (RA 1), Lymphoma): 4.39 µM | IC50 (Ramos, Ramos (RA 1), Lymphoma): 4.39 µM | EC50 [11]: 15.7 µM | GI50 [11]: 15.1 µM | IC50 [11]: 15.7 µM | EC50 (SCC-4, SCC-4, Head and Neck): > 30 µM | GI50 (SCC-4, SCC-4, Head and Neck): > 30 µM | IC50 (SCC-4, SCC-4, Head and Neck): > 30 µM | EC50 (SCC-9, SCC-9, Head and Neck): 26.7 µM | GI50 (SCC-9, SCC-9, Head and Neck): 27.3 µM | IC50 (SCC-9, SCC-9, Head and Neck): 27.3 µM | EC50 (SCC-25, SCC-25, Head and Neck): > 30 µM | GI50 (SCC-25, SCC-25, Head and Neck): > 30 µM | IC50 (SCC-25, SCC-25, Head and Neck): > 30 µM | EC50 (SCaBER, Bladder): 11.5 µM | GI50 (SCaBER, Bladder): 11.4 µM
